The subject of one assay is c-MYC G-quadruplex. Nature of the assay: FRET melting in competition with duplex DNA. Type of assay: binding. The conditions noted are these: 1 μM ligand, 0.2 μM c-MYC, up to 500 equivalence of double-stranded DNA. The procedure: FRET DNA melting in competition with duplex DNA. FRET competition assay was performed by adding 2 μM, 20 μM and 100 μM double-stranded competitor 26ds DNA (5′-CAATCGGATCGAATTCGATCCGATTG-3′) (SEQ ID NO: 16) in the presence of 0.2 μM c-MYC G-quadruplex and 1 μM DMZ analogs. Both c-MYC G-quadruplex and 26ds DNA were diluted in 60 mM potassium cacodylate buffer (pH 7.2) and then annealed by heating at 85° C. for 10 min followed by cooling to room temperature in the heating block. Experiments were performed in triplicate.

The next assay has as its system 7bp HP. Nature of the assay: ITC titration with 7 bp hairpin without A2T2. The conditions noted are these: 20 mM Tris, 100 mM KCl, pH 7.2. The format is binding. The procedure: Isothermal titration calorimetry. ITC experiments were performed using a VP-ITC calorimeter (GE-Healthcare). A typical ITC experiment involved as many as addition of 28 (10 μL) injections of as high as 1 mM ligand solutions into ˜1.5 mL of a dilute DNA solution (10 μM). Corrected titration curves were achieved by subtracting the blank titration data from the ITC-data for the ligand-DNA titrations. Corrected ITC titrations were fit with a nonlinear regression algorithm again using the CHASM ITC data analysis program developed in our laboratory.
DNA stock solutions were prepared by reconstituting the lyophilized oligonucleotide into 20 mM Tris buffer with a salt concentration of 100 mM KCl and a pH of 7.2. Approximately 2 mL of the oligonucleotide was dialyzed (1000 Mw cutoff membrane) against three changes of buffer solution (1 L, 24 h each) at 4° C. The concentrations of stock DNA solutions were verified using UV-Vis. G-Quadruplex DNAs were annealed by quickly heating to sample to 100° C., holding at 100° C. for ten minutes then slowly cooling to 5° C. over three hours period. Molar extinction coefficient of the DNAs were determined using a nearest-neighbor method for single stranded DNA. The extinction coefficients at 260 nm for the WT 27-mer bcl-2, WT 24-mer c-myc, WT 22-mer human telomere hTel sequences are 267,200 M^−1cm^−1, 248,100 M^−1cm^−1, and 228,500 M^−1cm^−1 respectively. […]

For another assay, the system named is hTel22. Briefly: CD titration with hTel22. The following applies: K+ Tris buffer. The format is binding, human. How it is done:
Circular Dichroism (CD). CD titration experiments were performed with an Olis DSM-20 spectropolarimeter (Bogart, Ga.). All measurements were done at 25° C. using a 1 cm quartz cuvette and covering a spectral range of 220-420 nm. […] Stock solutions of the ligand were added in small amount to reach a molar ratio of 1:1, 3:1, 6:1, and 10:1 of ligand per equivalence of DNA.

With `N=C(N)c1ccc(NN=Nc2ccccc2)cc1` [DMZ1], in the assay with c-MYC G-quadruplex, the “effect of competitor double-stranded DNA on Tm of c-MYC” value is recorded as “did not affect the Tm of c-MYC”.
In turn, `N=C(N)c1ccc(/N=N/Nc2ccc(C(=N)N)cc2)cc1` [DMZ, Diminazene aceturate, reference compound] registered a K2 in the assay on 7bp HP of 18000 M⁻¹. In addition, the “effect on structure of G-quadruplex (CD)” value in the assay with hTel22 is given as “very little effect on the structure”.

Values taken from patent US20190209548A1, “LINKED DIARYL COMPOUNDS WITH ANTICANCER PROPERTIES AND METHODS OF USING THE SAME” (University of Maryland, College Park, priority 2014, published 2019).
